Source: PubChem BioAssay (NCI)
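Each compound was tested at five concentrations against cells in 96-well plates for 48 hours. The concentration for full growth arrest is given as TGI.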

Columns and labels:
Experiment in all cases: inhibition of tumour cell growth, NCI panel, 48 h
NCI-H460 lung = test system: NCI-H460 lung
SW-620 colon = test system: SW-620 colon
RXF 393 renal = test system: RXF 393 renal
LOX IMVI melanoma = test system: LOX IMVI melanoma
SK-MEL-5 melanoma = test system: SK-MEL-5 melanoma
HCT-15 colon = test system: HCT-15 colon
SN12C renal = test system: SN12C renal
CCRF-CEM leukemia = test system: CCRF-CEM leukemia
BT-549 breast = test system: BT-549 breast
T-47D breast = test system: T-47D breast
HOP-92 NSCLC = test system: HOP-92 NSCLC
IGROV1 ovarian = test system: IGROV1 ovarian
A498 renal = test system: A498 renal
HOP-62 NSCLC = test system: HOP-62 NSCLC
ACHN renal = test system: ACHN renal
SF-268 CNS = test system: SF-268 CNS
MOLT-4 leukemia = test system: MOLT-4 leukemia
MDA-MB-435 = test system: MDA-MB-435
OVCAR-4 ovarian = test system: OVCAR-4 ovarian
SK-OV-3 ovarian = test system: SK-OV-3 ovarian
COLO 205 colon = test system: COLO 205 colon
NCI/ADR-RES ovarian = test system: NCI/ADR-RES ovarian
CAKI-1 renal = test system: CAKI-1 renal
786-0 renal = test system: 786-0 renal
NCI-H522 lung = test system: NCI-H522 lung
OVCAR-5 ovarian = test system: OVCAR-5 ovarian
HT29 colon = test system: HT29 colon
NCI-H23 lung = test system: NCI-H23 lung
HS 578T breast = test system: HS 578T breast
SK-MEL-2 melanoma = test system: SK-MEL-2 melanoma
OVCAR-3 ovarian = test system: OVCAR-3 ovarian
UACC-257 melanoma = test system: UACC-257 melanoma
SK-MEL-28 melanoma = test system: SK-MEL-28 melanoma
SNB-19 CNS = test system: SNB-19 CNS
SR leukemia = test system: SR leukemia
HCC-2998 colon = test system: HCC-2998 colon
UACC-62 melanoma = test system: UACC-62 melanoma
RPMI-8226 leukemia = test system: RPMI-8226 leukemia
DU-145 prostate = test system: DU-145 prostate
MDA-MB-231 breast = test system: MDA-MB-231 breast
UO-31 renal = test system: UO-31 renal
K-562 leukemia = test system: K-562 leukemia
SF-295 CNS = test system: SF-295 CNS
TK-10 renal = test system: TK-10 renal
MDA-N = test system: MDA-N
EKVX NSCLC = test system: EKVX NSCLC
HL-60(TB) leukemia = test system: HL-60(TB) leukemia
NCI-H226 lung = test system: NCI-H226 lung
SNB-75 CNS = test system: SNB-75 CNS
U251 CNS = test system: U251 CNS
HCT-116 colon = test system: HCT-116 colon
SF-539 CNS = test system: SF-539 CNS
MALME-3M melanoma = test system: MALME-3M melanoma
PC-3 prostate = test system: PC-3 prostate
KM12 colon = test system: KM12 colon
A549 NSCLC = test system: A549 NSCLC
MCF7 breast = test system: MCF7 breast
M14 melanoma = test system: M14 melanoma
OVCAR-8 ovarian = test system: OVCAR-8 ovarian

`O=[N+]([O-])/C(C(Cl)=C(Cl)Cl)=C(/Br)SCc1ccccc1` showed a TGI (NCI-H460 lung) of 24.1 µM, a TGI (SW-620 colon) of 4.16 µM and a TGI (RXF 393 renal) of 4.01 µM. The TGI (LOX IMVI melanoma) was 4.24 µM, the TGI (SK-MEL-5 melanoma) was 16.4 µM and the TGI (HCT-15 colon) was 4.98 µM. For the same compound, the TGI (SN12C renal) was 5.8 µM, the TGI (CCRF-CEM leukemia) was 0.633 µM and the TGI (BT-549 breast) was 4.22 µM. It also gave a TGI (T-47D breast) of 13.5 µM, a TGI (HOP-92 NSCLC) of 5.28 µM and a TGI (IGROV1 ovarian) of 13.3 µM. For the same compound, the TGI (A498 renal) was 15.2 µM, the TGI (HOP-62 NSCLC) was 41.7 µM and the TGI (ACHN renal) was 6.85 µM. For the same compound, the TGI (SF-268 CNS) was 7.2 µM, the TGI (MOLT-4 leukemia) was 1.03 µM and the TGI (MDA-MB-435) was 2.94 µM. It also gave a TGI (OVCAR-4 ovarian) of 8.19 µM, a TGI (SK-OV-3 ovarian) of 36.4 µM and a TGI (COLO 205 colon) of 3.43 µM. It also gave a TGI (NCI/ADR-RES ovarian) of 15.3 µM, a TGI (CAKI-1 renal) of 3.65 µM and a TGI (786-0 renal) of 4.64 µM. For the same compound, the TGI (NCI-H522 lung) was 4.49 µM, the TGI (OVCAR-5 ovarian) was 18.5 µM and the TGI (HT29 colon) was 4.92 µM. It also gave a TGI (NCI-H23 lung) of 12 µM, a TGI (HS 578T breast) of 47.7 µM and a TGI (SK-MEL-2 melanoma) of 13.8 µM. For the same compound, the TGI (OVCAR-3 ovarian) was 5.02 µM, the TGI (UACC-257 melanoma) was 11.3 µM and the TGI (SK-MEL-28 melanoma) was 4.09 µM. It also gave a TGI (SNB-19 CNS) of 27.7 µM, a TGI (SR leukemia) of 4.2 µM and a TGI (HCC-2998 colon) of 21.1 µM. For the same compound, the TGI (UACC-62 melanoma) was 16.1 µM, the TGI (RPMI-8226 leukemia) was 3.39 µM and the TGI (DU-145 prostate) was 25.7 µM. For the same compound, the TGI (MDA-MB-231 breast) was 6.06 µM, the TGI (UO-31 renal) was 5.72 µM and the TGI (K-562 leukemia) was 2.04 µM. For the same compound, the TGI (SF-295 CNS) was 31.5 µM, the TGI (TK-10 renal) was 9.61 µM and the TGI (MDA-N) was 4.04 µM. The TGI (EKVX NSCLC) was 12.5 µM, the TGI (HL-60(TB) leukemia) was 0.905 µM and the TGI (NCI-H226 lung) was 14.9 µM. For the same compound, the TGI (SNB-75 CNS) was 9.02 µM, the TGI (U251 CNS) was 14.5 µM and the TGI (HCT-116 colon) was 4.13 µM. For the same compound, the TGI (SF-539 CNS) was 21.4 µM, the TGI (MALME-3M melanoma) was 11.9 µM and the TGI (PC-3 prostate) was 7.21 µM. The TGI (KM12 colon) was 28.5 µM, the TGI (A549 NSCLC) was 15.2 µM and the TGI (MCF7 breast) was 9.11 µM. It also gave a TGI (M14 melanoma) of 5.79 µM.
With `O=c1oc2ccc(Cl)cc2c2ccccc12` the TGI (NCI-H460 lung) was > 100 µM, the TGI (SW-620 colon) was > 100 µM and the TGI (RXF 393 renal) was 58.9 µM. For the same compound, the TGI (LOX IMVI melanoma) was > 100 µM, the TGI (SK-MEL-5 melanoma) was > 100 µM and the TGI (HCT-15 colon) was > 100 µM. The TGI (SN12C renal) was > 100 µM, the TGI (CCRF-CEM leukemia) was > 100 µM and the TGI (BT-549 breast) was 37 µM. For the same compound, the TGI (T-47D breast) was > 100 µM, the TGI (HOP-92 NSCLC) was 93.5 µM and the TGI (IGROV1 ovarian) was > 100 µM. The TGI (A498 renal) was > 100 µM, the TGI (HOP-62 NSCLC) was 45.1 µM and the TGI (ACHN renal) was > 100 µM. The TGI (SF-268 CNS) was 50.5 µM, the TGI (MOLT-4 leukemia) was > 100 µM and the TGI (MDA-MB-435) was > 100 µM. The TGI (OVCAR-4 ovarian) was > 100 µM, the TGI (COLO 205 colon) was > 100 µM and the TGI (NCI/ADR-RES ovarian) was > 100 µM. The TGI (CAKI-1 renal) was > 100 µM, the TGI (786-0 renal) was > 100 µM and the TGI (NCI-H522 lung) was > 100 µM. The TGI (OVCAR-5 ovarian) was > 100 µM, the TGI (HT29 colon) was > 100 µM and the TGI (NCI-H23 lung) was 58.2 µM. For the same compound, the TGI (HS 578T breast) was 77.2 µM, the TGI (SK-MEL-2 melanoma) was 50.9 µM and the TGI (OVCAR-3 ovarian) was > 100 µM. The TGI (UACC-257 melanoma) was > 100 µM, the TGI (SK-MEL-28 melanoma) was > 100 µM and the TGI (SNB-19 CNS) was 45.1 µM. For the same compound, the TGI (SR leukemia) was > 100 µM, the TGI (HCC-2998 colon) was > 100 µM and the TGI (UACC-62 melanoma) was > 100 µM. For the same compound, the TGI (RPMI-8226 leukemia) was > 100 µM, the TGI (DU-145 prostate) was > 100 µM and the TGI (MDA-MB-231 breast) was 41.2 µM. For the same compound, the TGI (K-562 leukemia) was > 100 µM, the TGI (SF-295 CNS) was > 100 µM and the TGI (TK-10 renal) was > 100 µM. For the same compound, the TGI (MDA-N) was > 100 µM, the TGI (EKVX NSCLC) was > 100 µM and the TGI (HL-60(TB) leukemia) was > 100 µM. For the same compound, the TGI (NCI-H226 lung) was > 100 µM, the TGI (SNB-75 CNS) was 97.4 µM and the TGI (U251 CNS) was 33.7 µM. The TGI (OVCAR-8 ovarian) was > 100 µM, the TGI (HCT-116 colon) was > 100 µM and the TGI (SF-539 CNS) was > 100 µM. For the same compound, the TGI (MALME-3M melanoma) was > 100 µM, the TGI (PC-3 prostate) was > 100 µM and the TGI (A549 NSCLC) was > 100 µM. The TGI (MCF7 breast) was > 100 µM and the TGI (M14 melanoma) was > 100 µM.
